Key:
Assay in all cases: KinaseProfiler
Assay type in all cases: biochemical
Conditions in all cases: 10 μM, ATP near Km
ALK = target: T1, ALK (Homo sapiens, UniProt Q9UM73)
T1 construct: purchased Millipore (KinaseProfiler service)
Summary of the method: (§1)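 The compound is tested once at 10 μM against each kinase, in duplicate, with ATP near Km. Activity remaining is given as percent of control, averaged.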

BrSK2 = target: T2, BrSK2 (Homo sapiens, UniProt Q8IWQ3)
T2 construct: purchased Millipore (KinaseProfiler service)
Summary of the method: as §1

CAMK2g = target: T3, CAMK2g (Homo sapiens, UniProt Q13555)
T3 construct: purchased Millipore (KinaseProfiler service)
Summary of the method: as §1

CDK2/cyclinE = target: T4, CDK2/cyclinE (Homo sapiens, UniProt P24941)
T4 construct: purchased Millipore, Inc. (KinaseProfiler service)
Summary of the method: as §1

CDK5/p25 = target: T5, CDK5/p25 (Homo sapiens, UniProt Q00535)
T5 construct: purchased Millipore, Inc. (KinaseProfiler service)
Summary of the method: as §1

CDK5/p35 = target: T6, CDK5/p35 (Homo sapiens, UniProt Q00535)
T6 construct: purchased Millipore, Inc. (KinaseProfiler service)
Summary of the method: as §1

CDK9/cyclinT1 = target: T7, CDK9/cyclinT1 (Homo sapiens, UniProt P50750)
T7 construct: purchased Millipore, Inc. (KinaseProfiler service)
Summary of the method: as §1

CHK2 = target: T8, CHK2 (Homo sapiens, UniProt O96017)
T8 construct: purchased Millipore, Inc. (KinaseProfiler service)
Summary of the method: as §1

CK2 = target: T9, CK2 (Homo sapiens, UniProt P68400)
T9 construct: purchased Millipore, Inc. (KinaseProfiler service)
Summary of the method: as §1

DMPK = target: T10, DMPK (Homo sapiens, UniProt Q09013)
T10 construct: purchased Millipore, Inc. (KinaseProfiler service)
Summary of the method: as §1

EphA2 = target: T11, EphA2 (Homo sapiens, UniProt P29317)
T11 construct: purchased Millipore, Inc. (KinaseProfiler service)
Summary of the method: as §1

EphA8 = target: T12, EphA8 (Homo sapiens, UniProt P29322)
T12 construct: purchased Millipore, Inc. (KinaseProfiler service)
Summary of the method: as §1

EphB2 = target: T13, EphB2 (Homo sapiens, UniProt P29323)
T13 construct: purchased Millipore, Inc. (KinaseProfiler service)
Summary of the method: as §1

FGFR4 = target: T14, FGFR4 (Homo sapiens, UniProt P22455)
T14 construct: purchased Millipore, Inc. (KinaseProfiler service)
Summary of the method: as §1

IKKalpha = target: T15, IKKalpha (Homo sapiens, UniProt O15111)
T15 construct: purchased Millipore, Inc. (KinaseProfiler service)
Summary of the method: as §1

IRR = target: T16, IRR (Homo sapiens, UniProt P14616)
T16 construct: purchased Millipore, Inc. (KinaseProfiler service)
Summary of the method: as §1

JAK3 = target: T17, JAK3 (Homo sapiens, UniProt P52333)
T17 construct: purchased Millipore, Inc. (KinaseProfiler service)
Summary of the method: as §1

Lck = target: T18, Lck (Homo sapiens, UniProt P06239)
T18 construct: purchased Millipore, Inc. (KinaseProfiler service)
Summary of the method: as §1

MAPKAP-K3 = target: T19, MAPKAP-K3 (Homo sapiens, UniProt Q16644)
T19 construct: purchased Millipore, Inc. (KinaseProfiler service)
Summary of the method: as §1

MARK1 = target: T20, MARK1 (Homo sapiens, UniProt Q9P0L2)
T20 construct: purchased Millipore, Inc. (KinaseProfiler service)
Summary of the method: as §1

MEK1 = target: T21, MEK1 (Homo sapiens, UniProt Q02750)
T21 construct: purchased Millipore, Inc. (KinaseProfiler service)
Summary of the method: as §1

MICK4_m = target: T22, MICK4_m (Mus musculus, UniProt P47809)
T22 construct: purchased Millipore, Inc. (KinaseProfiler service)
Summary of the method: as §1

MRCKalpha = target: T23, MRCKalpha (Homo sapiens, UniProt Q5VT25)
T23 construct: purchased Millipore, Inc. (KinaseProfiler service)
Summary of the method: as §1

MSK1 = target: T24, MSK1 (Homo sapiens, UniProt O75582)
T24 construct: purchased Millipore, Inc. (KinaseProfiler service)
Summary of the method: as §1

MST2 = target: T25, MST2 (Homo sapiens, UniProt Q13188)
T25 construct: purchased Millipore, Inc. (KinaseProfiler service)
Summary of the method: as §1

MYLK = target: T26, MYLK (Homo sapiens, UniProt Q15746)
T26 construct: purchased Millipore, Inc. (KinaseProfiler service)
Summary of the method: as §1

Mer = target: T27, Mer (Homo sapiens, UniProt Q12866)
T27 construct: purchased Millipore, Inc. (KinaseProfiler service)
Summary of the method: as §1

NEK7 = target: T28, NEK7 (Homo sapiens, UniProt Q8TDX7)
T28 construct: purchased Millipore, Inc. (KinaseProfiler service)
Summary of the method: as §1

PKAC-alpha = target: T29, PKAC-alpha (Homo sapiens, UniProt P17612)
T29 construct: purchased Millipore, Inc. (KinaseProfiler service)
Summary of the method: as §1

PKCalpha = target: T30, PKCalpha (Homo sapiens, UniProt P17252)
T30 construct: purchased Millipore, Inc. (KinaseProfiler service)
Summary of the method: as §1

PKCdelta = target: T31, PKCdelta (Homo sapiens, UniProt Q05655)
T31 construct: purchased Millipore, Inc. (KinaseProfiler service)
Summary of the method: as §1

PKCgamma = target: T32, PKCgamma (Homo sapiens, UniProt P05129)
T32 construct: purchased Millipore, Inc. (KinaseProfiler service)
Summary of the method: as §1

PKD1 = target: T33, PKD1 (Homo sapiens, UniProt Q15139)
T33 construct: purchased Millipore, Inc. (KinaseProfiler service)
Summary of the method: as §1

PKD2 = target: T34, PKD2 (Homo sapiens, UniProt Q9BZL6)
T34 construct: purchased Millipore, Inc. (KinaseProfiler service)
Summary of the method: as §1

Plk2 = target: T35, Plk2 (Homo sapiens, UniProt Q9NYY3)
T35 construct: purchased Millipore, Inc. (KinaseProfiler service)
Summary of the method: as §1

Rsk2 = target: T36, Rsk2 (Homo sapiens, UniProt P51812)
T36 construct: purchased Millipore, Inc. (KinaseProfiler service)
Summary of the method: as §1

Rsk4 = target: T37, Rsk4 (Homo sapiens, UniProt Q9UK32)
T37 construct: purchased Millipore, Inc. (KinaseProfiler service)
Summary of the method: as §1

SIK = target: T38, SIK (Homo sapiens, UniProt P57059)
T38 construct: purchased Millipore, Inc. (KinaseProfiler service)
Summary of the method: as §1

TSSK1 = target: T39, TSSK1 (Homo sapiens, UniProt Q9BXA7)
T39 construct: purchased Millipore, Inc. (KinaseProfiler service)
Summary of the method: as §1

TrkB = target: T40, TrkB (Homo sapiens, UniProt Q16620)
T40 construct: purchased Millipore, Inc. (KinaseProfiler service)
Summary of the method: as §1

ZAP-70 = target: T41, ZAP-70 (Homo sapiens, UniProt P43403)
T41 construct: purchased Millipore, Inc. (KinaseProfiler service)
Summary of the method: as §1

T35 sequence (Q9NYY3 whole entry): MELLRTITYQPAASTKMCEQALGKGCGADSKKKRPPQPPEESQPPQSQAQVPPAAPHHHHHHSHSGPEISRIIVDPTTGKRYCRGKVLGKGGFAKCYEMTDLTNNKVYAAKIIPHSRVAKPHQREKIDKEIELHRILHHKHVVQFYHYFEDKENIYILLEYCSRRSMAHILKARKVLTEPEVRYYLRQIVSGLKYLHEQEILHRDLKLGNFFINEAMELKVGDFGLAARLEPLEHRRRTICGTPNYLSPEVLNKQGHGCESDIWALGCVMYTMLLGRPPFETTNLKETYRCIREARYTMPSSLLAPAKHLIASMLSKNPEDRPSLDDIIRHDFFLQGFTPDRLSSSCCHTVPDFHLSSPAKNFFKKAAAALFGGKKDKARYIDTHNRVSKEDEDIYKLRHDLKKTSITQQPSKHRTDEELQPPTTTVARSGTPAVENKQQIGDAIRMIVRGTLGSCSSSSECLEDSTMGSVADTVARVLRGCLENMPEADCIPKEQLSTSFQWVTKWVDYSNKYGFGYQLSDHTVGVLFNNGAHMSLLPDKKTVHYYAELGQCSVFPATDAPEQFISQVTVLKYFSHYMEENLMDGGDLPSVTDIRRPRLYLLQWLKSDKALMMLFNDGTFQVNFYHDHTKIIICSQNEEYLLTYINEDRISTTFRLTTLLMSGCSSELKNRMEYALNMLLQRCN
T13 sequence (P29323 19-1055): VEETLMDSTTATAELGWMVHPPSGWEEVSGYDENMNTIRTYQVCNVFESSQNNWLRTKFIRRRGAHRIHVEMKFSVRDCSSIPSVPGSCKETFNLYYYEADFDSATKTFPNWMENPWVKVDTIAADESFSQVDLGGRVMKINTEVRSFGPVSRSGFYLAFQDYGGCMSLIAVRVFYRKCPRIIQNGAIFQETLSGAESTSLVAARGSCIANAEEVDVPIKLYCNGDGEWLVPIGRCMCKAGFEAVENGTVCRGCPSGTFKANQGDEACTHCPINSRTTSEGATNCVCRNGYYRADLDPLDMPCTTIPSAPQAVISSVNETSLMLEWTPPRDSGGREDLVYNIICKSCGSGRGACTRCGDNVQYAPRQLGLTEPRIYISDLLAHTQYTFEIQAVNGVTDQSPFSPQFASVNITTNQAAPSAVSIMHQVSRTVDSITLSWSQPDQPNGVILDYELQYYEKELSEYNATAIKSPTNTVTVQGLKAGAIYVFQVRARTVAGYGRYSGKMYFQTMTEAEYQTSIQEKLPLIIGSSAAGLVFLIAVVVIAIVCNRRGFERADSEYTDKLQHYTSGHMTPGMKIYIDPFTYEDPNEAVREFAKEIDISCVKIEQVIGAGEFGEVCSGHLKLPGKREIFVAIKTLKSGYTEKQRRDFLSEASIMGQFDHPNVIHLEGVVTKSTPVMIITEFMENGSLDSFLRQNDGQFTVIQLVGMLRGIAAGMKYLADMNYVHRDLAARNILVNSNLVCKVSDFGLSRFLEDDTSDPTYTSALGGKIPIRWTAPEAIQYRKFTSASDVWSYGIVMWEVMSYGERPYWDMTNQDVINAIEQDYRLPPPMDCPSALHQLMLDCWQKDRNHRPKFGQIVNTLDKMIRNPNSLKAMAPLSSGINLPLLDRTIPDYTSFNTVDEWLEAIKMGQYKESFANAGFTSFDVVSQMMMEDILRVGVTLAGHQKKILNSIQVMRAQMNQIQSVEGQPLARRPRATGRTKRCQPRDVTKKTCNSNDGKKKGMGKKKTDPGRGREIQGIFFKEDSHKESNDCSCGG
T23 sequence (Q5VT25 whole entry): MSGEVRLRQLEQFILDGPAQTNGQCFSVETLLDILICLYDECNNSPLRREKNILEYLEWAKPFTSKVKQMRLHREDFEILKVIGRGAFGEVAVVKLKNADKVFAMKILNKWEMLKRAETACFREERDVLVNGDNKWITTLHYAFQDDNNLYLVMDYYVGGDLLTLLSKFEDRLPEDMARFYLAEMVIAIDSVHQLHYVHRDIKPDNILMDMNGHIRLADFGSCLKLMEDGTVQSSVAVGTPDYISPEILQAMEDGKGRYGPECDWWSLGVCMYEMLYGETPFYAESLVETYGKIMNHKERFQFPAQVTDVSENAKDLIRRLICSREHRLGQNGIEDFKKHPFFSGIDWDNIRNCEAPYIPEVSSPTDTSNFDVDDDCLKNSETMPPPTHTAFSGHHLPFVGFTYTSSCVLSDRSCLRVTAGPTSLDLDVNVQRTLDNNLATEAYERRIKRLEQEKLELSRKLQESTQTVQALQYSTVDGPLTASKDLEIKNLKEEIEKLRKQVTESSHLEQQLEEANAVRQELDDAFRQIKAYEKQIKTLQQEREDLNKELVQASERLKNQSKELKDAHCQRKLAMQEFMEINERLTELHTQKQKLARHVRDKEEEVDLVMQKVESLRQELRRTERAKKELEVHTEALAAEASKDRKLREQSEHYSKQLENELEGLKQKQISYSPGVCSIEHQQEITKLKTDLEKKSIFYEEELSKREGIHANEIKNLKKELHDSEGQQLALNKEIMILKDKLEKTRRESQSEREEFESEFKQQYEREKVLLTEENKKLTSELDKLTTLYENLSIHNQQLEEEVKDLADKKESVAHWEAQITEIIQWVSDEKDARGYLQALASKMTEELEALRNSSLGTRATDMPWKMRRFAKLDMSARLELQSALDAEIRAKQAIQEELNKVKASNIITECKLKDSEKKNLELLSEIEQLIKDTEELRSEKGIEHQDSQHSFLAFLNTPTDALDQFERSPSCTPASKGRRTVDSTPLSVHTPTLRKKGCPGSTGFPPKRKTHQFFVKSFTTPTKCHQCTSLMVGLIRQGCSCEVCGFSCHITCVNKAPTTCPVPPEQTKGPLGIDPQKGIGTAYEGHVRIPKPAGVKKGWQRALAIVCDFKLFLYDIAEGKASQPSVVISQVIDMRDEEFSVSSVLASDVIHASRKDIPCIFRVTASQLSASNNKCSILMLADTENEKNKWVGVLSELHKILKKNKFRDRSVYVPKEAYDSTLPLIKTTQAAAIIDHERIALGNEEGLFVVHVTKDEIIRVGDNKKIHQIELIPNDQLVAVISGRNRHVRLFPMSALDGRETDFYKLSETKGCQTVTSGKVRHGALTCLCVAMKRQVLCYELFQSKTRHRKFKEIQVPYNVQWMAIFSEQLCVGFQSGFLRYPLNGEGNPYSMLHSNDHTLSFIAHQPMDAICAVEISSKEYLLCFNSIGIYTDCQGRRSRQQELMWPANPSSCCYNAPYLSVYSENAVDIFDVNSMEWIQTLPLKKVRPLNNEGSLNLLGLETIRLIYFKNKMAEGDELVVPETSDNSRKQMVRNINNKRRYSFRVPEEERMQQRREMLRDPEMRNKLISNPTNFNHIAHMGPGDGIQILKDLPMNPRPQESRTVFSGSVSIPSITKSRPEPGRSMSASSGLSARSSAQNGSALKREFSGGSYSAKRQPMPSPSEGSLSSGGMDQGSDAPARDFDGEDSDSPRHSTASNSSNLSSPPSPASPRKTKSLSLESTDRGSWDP
T8 sequence (O96017 whole entry): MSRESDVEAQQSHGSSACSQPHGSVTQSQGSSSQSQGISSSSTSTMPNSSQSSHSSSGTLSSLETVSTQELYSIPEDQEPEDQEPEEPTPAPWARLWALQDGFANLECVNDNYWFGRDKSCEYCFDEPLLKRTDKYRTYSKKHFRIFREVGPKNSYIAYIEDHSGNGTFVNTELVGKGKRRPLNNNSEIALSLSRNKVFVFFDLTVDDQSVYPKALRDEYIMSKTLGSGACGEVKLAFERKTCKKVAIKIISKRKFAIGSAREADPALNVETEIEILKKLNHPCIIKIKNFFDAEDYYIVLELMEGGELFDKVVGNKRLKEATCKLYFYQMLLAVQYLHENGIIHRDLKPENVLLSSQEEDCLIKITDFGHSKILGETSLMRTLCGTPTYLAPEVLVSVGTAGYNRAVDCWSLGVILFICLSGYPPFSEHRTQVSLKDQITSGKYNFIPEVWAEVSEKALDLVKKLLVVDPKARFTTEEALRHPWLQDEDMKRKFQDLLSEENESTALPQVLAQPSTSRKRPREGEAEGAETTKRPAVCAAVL
T24 sequence (O75582 whole entry): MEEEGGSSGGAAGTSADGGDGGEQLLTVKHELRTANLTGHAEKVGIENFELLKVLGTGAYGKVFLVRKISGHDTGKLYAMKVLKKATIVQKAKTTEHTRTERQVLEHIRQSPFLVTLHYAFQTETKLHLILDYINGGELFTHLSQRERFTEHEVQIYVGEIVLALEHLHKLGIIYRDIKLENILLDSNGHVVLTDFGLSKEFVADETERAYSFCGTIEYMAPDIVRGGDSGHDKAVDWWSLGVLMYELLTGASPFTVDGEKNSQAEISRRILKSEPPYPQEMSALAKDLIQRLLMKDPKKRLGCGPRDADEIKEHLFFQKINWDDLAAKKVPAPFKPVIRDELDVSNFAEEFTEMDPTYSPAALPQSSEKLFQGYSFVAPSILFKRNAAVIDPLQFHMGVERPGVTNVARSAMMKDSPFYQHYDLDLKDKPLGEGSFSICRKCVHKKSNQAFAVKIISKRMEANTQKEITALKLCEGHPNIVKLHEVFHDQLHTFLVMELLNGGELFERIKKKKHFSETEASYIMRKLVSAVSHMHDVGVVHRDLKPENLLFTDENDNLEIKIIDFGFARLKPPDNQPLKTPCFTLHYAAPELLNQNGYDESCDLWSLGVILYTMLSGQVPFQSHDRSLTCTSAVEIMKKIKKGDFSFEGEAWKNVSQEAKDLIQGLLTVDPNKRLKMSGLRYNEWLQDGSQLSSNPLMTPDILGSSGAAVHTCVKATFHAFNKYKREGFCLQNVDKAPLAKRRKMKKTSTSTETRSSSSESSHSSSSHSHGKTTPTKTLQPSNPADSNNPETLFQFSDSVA
T28 sequence (Q8TDX7 whole entry): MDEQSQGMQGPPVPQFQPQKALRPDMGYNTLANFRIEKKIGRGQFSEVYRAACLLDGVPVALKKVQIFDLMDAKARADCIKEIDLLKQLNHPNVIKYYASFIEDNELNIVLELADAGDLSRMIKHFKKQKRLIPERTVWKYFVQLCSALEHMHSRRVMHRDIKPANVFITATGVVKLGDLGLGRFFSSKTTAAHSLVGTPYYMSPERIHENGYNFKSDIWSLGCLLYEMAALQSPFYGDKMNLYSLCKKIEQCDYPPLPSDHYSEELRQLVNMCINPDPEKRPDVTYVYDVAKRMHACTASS

COCCCc1cc(Cl)c(Cl)cc1NC(=O)Nc1c(C)c(-c2cnn(C)c2)nn1-c1ccccc1 [Example 15, 1-(4,5-dichloro-2-(3-methoxypropyl)phenyl)-3-(1′,4-dimethyl-1-phenyl-1H,1′H-[3,4′-bipyrazol]-5-yl)urea]
Avg POC (ALK): 105 POC | Avg POC (BrSK2): 123 POC | Avg POC (CAMK2g): 103 POC | Avg POC (CDK2/cyclinE): 106.5 POC | Avg POC (CDK5/p25): 106 POC | Avg POC (CDK5/p35): 110 POC | Avg POC (CDK9/cyclinT1): 112.5 POC | Avg POC (CHK2): 130 POC | Avg POC (CK2): 94.5 POC | Avg POC (DMPK): 108.5 POC | Avg POC (EphA2): 104 POC | Avg POC (EphA8): 127.5 POC | Avg POC (EphB2): 112.5 POC | Avg POC (FGFR4): 120 POC | Avg POC (IKKalpha): 128 POC | Avg POC (IRR): 99.5 POC | Avg POC (JAK3): 111 POC | Avg POC (Lck): 94.5 POC | Avg POC (MAPKAP-K3): 112.5 POC | Avg POC (MARK1): 107 POC | Avg POC (MEK1): 121.5 POC | Avg POC (MICK4_m): 137.5 POC | Avg POC (MRCKalpha): 137 POC | Avg POC (MSK1): 132.5 POC | Avg POC (MST2): 101.5 POC | Avg POC (MYLK): 111.5 POC | Avg POC (Mer): 97.5 POC | Avg POC (NEK7): 142 POC | Avg POC (PKAC-alpha): 149 POC | Avg POC (PKCalpha): 104 POC | Avg POC (PKCdelta): 96 POC | Avg POC (PKCgamma): 99.5 POC | Avg POC (PKD1): 113.5 POC | Avg POC (PKD2): 98.5 POC | Avg POC (Plk2): 105 POC | Avg POC (Rsk2): 136.5 POC | Avg POC (Rsk4): 105 POC | Avg POC (SIK): 137 POC | Avg POC (TSSK1): 80 POC | Avg POC (TrkB): 105 POC | Avg POC (ZAP-70): 141.5 POC

— patent US9790210B2, “N-(monocyclic aryl),N'-pyrazolyl-urea, thiourea, guanidine and cyanoguanidine compounds as TrkA kinase inhibitors” (Array BioPharma Inc., priority 2012, dated 2017)
